Source: paper PMC4045323 (Biochemistry, 2014)

Target: E275C gp120 (Human immunodeficiency virus type 1 group M subtype B, UniProt P35961, E271C)
Assay: covalent labeling
Type: biochemical, HIV-1
Conditions: α-biotin Western blot, reactants in 2-fold excess (Figure 3)

O=C(CCCC[C@@H]1SC[C@@H]2NC(=O)N[C@@H]21)NCCOCCOCCNC(=O)CCN1C(=O)C=CC1=O [MPB, Maleimide-PEG2-biotin, reference compound]
biotinylation (labeling) of E275C gp120: yields significantly lower
